Biological target: SGK1 (human) (UniProt O00141)
Assay: Flashplate

Chain of SGK1 (human) (O00141 whole entry, looked up): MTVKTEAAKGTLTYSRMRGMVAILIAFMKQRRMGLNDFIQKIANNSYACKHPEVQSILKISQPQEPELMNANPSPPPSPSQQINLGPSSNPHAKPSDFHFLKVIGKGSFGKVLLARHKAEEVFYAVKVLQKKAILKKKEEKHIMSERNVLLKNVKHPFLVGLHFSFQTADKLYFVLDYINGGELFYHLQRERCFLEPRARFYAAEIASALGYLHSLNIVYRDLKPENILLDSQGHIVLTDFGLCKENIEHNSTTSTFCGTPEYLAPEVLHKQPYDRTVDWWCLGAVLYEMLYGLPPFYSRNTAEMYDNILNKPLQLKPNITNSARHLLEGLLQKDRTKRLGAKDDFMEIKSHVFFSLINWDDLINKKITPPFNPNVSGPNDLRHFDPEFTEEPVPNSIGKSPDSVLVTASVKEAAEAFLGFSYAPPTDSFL

SMILES | Ki
CNC(=O)c1cc(Oc2ccc(NC(=O)Nc3cccc(C(F)(F)F)c3)cc2)ccn1 | > 10 µM
CNC(=O)c1ccccc1Nc1nc(Nc2ccc(N3CCOCC3)cc2OC)ncc1Cl | > 7.94 µM
Cc1cc(Nc2ncc(F)c(N[C@H]3[C@@H](C(N)=O)[C@@H]4C=C[C@H]3C4)n2)ccc1N1CCN(C)CC1 | 1.58 µM
NCCCOc1cncc(/C=C/c2ccncc2)c1 | > 10 µM
O[C@H]1CC[C@H](Nc2nc(Cl)cc(-c3c[nH]c4ncccc34)n2)CC1 | 0.158 µM
CC(C)(C)n1nc(-c2ccc(Cl)cc2)c2c(N)ncnc21 | > 6.31 µM
COc1nccc(-c2c(-c3ccc(F)cc3)ncn2[C@H]2CC[C@H](O)CC2)n1 | > 10 µM
C/C(=N/NC(=N)N)c1cc(NC(=O)c2cccc(C(=O)Nc3cc(/C(C)=N\NC(=N)N)cc(/C(C)=N/NC(=N)N)c3)c2)cc(/C(C)=N/NC(=N)N)c1 | 1.26 µM
Cc1cccc(NC(=O)Nc2ccc(-c3csc4c(C#CCN5CCCC5)cnc(N)c34)cc2)c1 | 5.01 µM
Cc1cccc(Cl)c1-c1cccc2c(CCCOc3cccc4ccccc34)c(C(=O)NCCOCCOCCN)[nH]c12 | > 10 µM
Cc1cc(C)cc(NC(=O)Nc2ccc(-c3cccc4c3CNC4=O)c(C)c2)c1 | > 10 µM
O=C(NCCCCCCNC(=O)Nc1cccnc1)Nc1cccnc1 | > 10 µM
CC1=NN(c2ccc(Cl)c(Cl)c2)C(=O)/C1=C\c1c(C)c(C#N)c2nc3ccccc3n2c1O | > 10 µM
COc1cc(C(=O)O)c(Cl)cc1NC(=O)Nc1cnc(C#N)cn1 | > 10 µM
Cc1n[nH]c2c1C(c1ccccc1F)C1=C(CC(C)(C)CC1=O)N2 (stereo not given) | > 10 µM
O=C(N/N=C/c1ccc(O)cc1O)Nc1cccc2nsnc12 | 0.126 µM
CC(C)(C)c1n[nH]c2c1C(c1ccccc1F)C(C#N)=C(N)O2 (stereo not given) | > 10 µM
Cc1nccn2c(-c3ccnc(NCC(C)(C)CO)n3)c(-c3ccc(F)cc3F)nc12 | > 10 µM
CC1=NN(c2ccc(C(=O)O)cc2)C(=O)/C1=C/c1c(C)c(C#N)c2nc3ccccc3n2c1O | > 10 µM
CCN(CCCOc1ccc2c(Nc3cc(CC(=O)Nc4cccc(F)c4)[nH]n3)ncnc2c1)CCOP(=O)(O)O | > 6.31 µM
Cn1c(=O)c(Oc2ccc(F)cc2F)cc2cnc(NC3CCOCC3)nc21 | > 10 µM
O=C(Nc1cnccn1)Nc1ccnc2cc(C(F)(F)F)ccc12 | 1 µM
CC(=O)N[C@@H]1CCN(c2nc3[nH]cc(C(=O)O)c(=O)c3c(C)c2F)C1 | > 10 µM
N[C@H](COc1cncc(-c2ccc3[nH]c(=O)oc3c2)c1)Cc1c[nH]c2ccccc12 | 5.01 µM
CN1CCC[C@H]1COc1cncc(CCc2ccccc2)c1 | > 10 µM

SMILES | Ki
CC[C@@H]1C(=O)N(C)c2cnc(Nc3ccc(C(=O)NC4CCCCC4)cc3OC)nc2N1C1CCCC1 | > 10 µM
Cc1cc(OC2CCCC2)c(NC(=O)Nc2cnc(C#N)cn2)cc1Cl | > 10 µM
NCC1CCC(CNc2nc(NCc3ccccc3Cl)ncc2[N+](=O)[O-])CC1 (stereo not given) | 5.01 µM
CC(C)c1nnc2ccc(-c3c(-c4ccc(F)cc4F)nc4n3CCC4)nn12 | > 10 µM
CO[C@@H](C(=O)N1Cc2[nH]nc(NC(=O)c3ccc(N4CCN(C)CC4)cc3)c2C1)c1ccccc1 | > 10 µM
COc1cc(-c2nn([C@H]3CC[C@H](N4CCN(C(C)=O)CC4)CC3)c3ncnc(N)c23)ccc1NC(=O)c1cc2ccccc2n1C | > 10 µM
O=C1NC(=S)S/C1=C1\C(=O)Nc2ccc(Br)cc21 | 2 µM
COc1cc(-c2ccc3c(c2)Nc2ccc(CCOc4ccc(N5CCOCC5)cc4)cc2NC3=O)ccc1CC#N | > 10 µM
COc1cc(N2CCC(N3CCN(C)CC3)CC2)ccc1Nc1ncc(Cl)c(Nc2ccccc2S(=O)(=O)C(C)C)n1 | > 10 µM
Cc1nccn2c(-c3ccnc(NCC(C)(C)O)n3)c(-c3ccc(F)cc3F)nc12 | > 10 µM
CCCOc1nc(NC(C)=O)cc(N)c1C#N | > 10 µM
CCCCn1c(NC(=O)c2cccc(C#N)c2)nc2cc(N(C)C(=O)C3CCCCC3)ccc21 | > 10 µM
S=c1[nH]nc2c3c4c(sc3n3c(=S)[nH]nc3n12)CCC4 | 1.58 µM
O=C(Nc1cccc(-c2nc3sccn3c2-c2ccnc(Nc3cccc(N4CCCC4=O)c3)n2)c1)c1c(F)cccc1F | > 10 µM
CC(C)Oc1ccc(-c2noc(-c3ccc(N[C@H]4CC[C@@H](C(=O)O)C4)cc3)n2)cc1Cl | > 10 µM
Cn1cncc1C(OCc1c(-c2ccc(OC(F)(F)F)cc2)cc(C#N)c(=O)n1C)c1ccc(C#N)cc1 (stereo not given) | > 10 µM
Cc1nn(C)c2c1c(=O)c1cc(Cl)ccc1n2OCC(C)C | > 10 µM
COc1nccn2c(-c3ccnc(NCC(C)(C)CO)n3)c(-c3ccc(F)cc3F)nc12 | > 10 µM
COc1cc(CN2CCCCC2)c(Cl)cc1NC(=O)Nc1cnc(C#N)cn1 | > 10 µM
C[C@@H](N)C1CCC(C(=O)Nc2ccnc3[nH]ccc23)CC1 (stereo not given in full) | > 10 µM
CC(=O)NCC(=O)N1C2CCC1c1cc(Nc3ncc(C(F)(F)F)c(NC4CCC4)n3)ccc12 (stereo not given) | 0.398 µM
O=C1Nc2ccccc2Nc2nnc(Cl)cc21 | 5.01 µM
CS(=O)c1ccc(-c2nc(-c3ccc(F)cc3)c(-c3ccncc3)[nH]2)cc1 (stereo not given) | > 7.94 µM
CC(=O)Nc1c(C(N)=O)sc2ccc(Cl)c(Cl)c12 | 3.98 µM
CCOC(=O)C1=c2s/c(=C/c3ccco3)c(=O)n2C(N)=C(C#N)C1c1ccco1 (stereo not given) | > 10 µM

Now from value to compound:

Ki | SMILES
0.398 µM | COc1ccc(C(=O)N2c3ccccc3Sc3c(Cl)cncc32)cc1
> 10 µM | O=C(Cc1ccccc1)Nc1cccc(-c2nc3sccn3c2-c2ccnc(Nc3cccc(N4CCCC4=O)c3)n2)c1
3.16 µM | CC(C)(C(N)=O)n1cc(-c2cnc(N)c3c(-c4ccc(NC(=O)Nc5cccc(F)c5)cc4)csc23)cn1
> 10 µM | O=C1Cc2c([nH]c3ccc([N+](=O)[O-])cc23)-c2ccccc2N1
> 10 µM | Cc1nc2ccccn2c1-c1csc(Nc2ccc(O)cc2)n1
3.98 µM | NS(=O)(=O)c1cccc(Nc2ncc3ccn(Cc4ccccc4)c3n2)c1
0.398 µM | COc1cccc([C@@H](C)NC(=O)c2ccc(-c3ccncc3)cc2NCCCN)c1
> 10 µM | Cc1cccc(NC(=O)Nc2ccc(-c3cccc4c3CNC4=O)cc2)c1
> 10 µM | C[C@H](Nc1nccc(-c2c(-c3ccc(F)cc3)nc3occn23)n1)c1ccccc1
> 10 µM | COc1ccc(/C=C2/S/C(=N/c3ccccc3)NC2=O)cc1OC
1.26 µM | Cc1n[nH]c2ccc(-c3cncc(OCC(CN)Cc4ccccc4)c3)cc12 (stereo not given)
> 10 µM | Cc1cc2nnc(SCc3cn4ccccc4n3)n2c2ccccc12
> 10 µM | COc1ccc(/C=N/Nc2ncnc3c2[nH]c2ccccc23)cc1OC
> 10 µM | CC(C)(CO)CNc1nccc(-c2c(-c3ccc(F)cc3)nc3c(CCN)nccn23)n1
> 10 µM | CC(C)(C)C(=O)Oc1ccc2c(c1)nc(NC(=O)c1cccc([N+](=O)[O-])c1)n2CCCO
3.16 µM | Cc1ccc(Cn2cc(-c3ccc4[nH]ncc4c3)nn2)c(C)c1
> 10 µM | Cc1ccc(CNc2ccc3nnc(-c4ccccc4)n3n2)cc1
> 10 µM | OC(COc1cncc(/C=C/c2ccncc2)c1)Cc1c[nH]c2ccccc12 (stereo not given)
2.51 µM | Nc1ncc(-c2cnn(CCO)c2)c2scc(-c3ccc(NC(=O)Nc4cccc(F)c4)cc3)c12
3.98 µM | CCCOc1cccc([C@@H](C)NC(=O)c2ccc(-c3ccncc3)cc2)c1
> 10 µM | Cc1ccc2nccc(NC(=O)Nc3cccc(C(F)(F)F)n3)c2c1
> 10 µM | CCN(CC)CCCNc1cccc(-c2nc3c(C(N)=O)cccc3[nH]2)n1
> 10 µM | O=c1[nH]c2ccc(Cl)cc2c(-c2ccccc2)c1C1=NNC(c2ccccc2)C1 (stereo not given)
0.631 µM | Nc1n[nH]c2ccc(-c3nnn(Cc4ccccc4)c3-c3ccccc3)cc12
> 10 µM | CC[C@H](CO)Nc1nc(NCc2ccccc2)c2ncn(C(C)C)c2n1
0.631 µM | COc1cccc([C@@H](C)NC(=O)c2ccc(-c3ccncn3)cc2)c1
> 10 µM | CCOc1nc(C(=O)NCc2ccccc2S(N)(=O)=O)cc(N)c1Cl
> 10 µM | NC(=O)c1sc(-n2cnc3ccccc32)cc1OCc1ccccc1C(F)(F)F

Ki | SMILES
> 10 µM | OCCNc1cc2cc(-c3ccccc3)ccc2cn1
7.94 µM | O=C(Nc1cnc2[nH]cc(-c3ccccc3)c2c1)c1cccc(F)c1F
> 10 µM | Nc1ncnc2c1c(-c1cccc(OCc3ccccc3)c1)cn2[C@H]1CC[C@H](N2CCCC2)CC1
5.01 µM | O=C1NCc2c1cccc2-c1ccc(Nc2nc3ccccc3[nH]2)cc1
3.98 µM | OC1CCN(c2ncnc3[nH]cc(-c4ccccc4)c23)CC1
> 10 µM | COc1ccc2c(NC(=O)Nc3cccc(Br)n3)ccnc2c1
> 10 µM | N#Cc1ccc2nc(N)n(-c3nc(-c4ccccc4)cs3)c2c1
> 10 µM | O=c1[nH]cc(I)c2nc(-c3ccccc3)cn12
> 10 µM | COc1cc(OC)c(Nc2ccc3nnc(-c4ccccc4)n3n2)cc1Cl
> 10 µM | Cc1cccc(/C=N/Nc2cc(N3CCOCC3)nc(OCCc3ccccn3)n2)c1
> 10 µM | O=C(NCc1ccc(Cl)cc1)Nc1cccc2[nH]ncc12
> 6.31 µM | c1ccc(-c2c[nH]c3ncnc(N4CCCCC4)c23)cc1
> 10 µM | CC(=O)Nc1cc(N)c(C#N)c(-c2ccc3ccccc3c2)n1
> 10 µM | COc1ccc(NC(=O)Nc2ccc(-c3csc4c(-c5cnn(CC(C)(C)O)c5)cnc(N)c34)cc2)cc1
7.94 µM | NCCCOc1cc2c(c(-c3ccc(Nc4nc5ccccc5o4)cc3)c1)CNC2=O
0.158 µM | CSc1cnc2c(ccc3cnccc32)c1O
> 10 µM | Clc1ccc(-c2n[nH]cc2-c2ccncn2)cc1Cl
> 10 µM | CCCC(=O)Nc1n[nH]c2ccc(-c3cccc(F)c3F)cc12
1.58 µM | CCCC(=O)Nc1n[nH]c2ccc(-c3nnn(Cc4ccccc4)c3-c3ccccc3)cc12
> 10 µM | O=C(c1cccc(-c2cnc3[nH]ccc3c2)c1)N1CCOCC1
0.158 µM | Cc1n[nH]c2ccc(-c3cncc(OC[C@@H](N)Cc4cccc(Cl)c4)c3)cc12
1.26 µM | NS(=O)(=O)c1cccc(Nc2ncc3ccn(-c4ccccc4)c3n2)c1
3.98 µM | CN(C)c1cccc2c(S(=O)(=O)N(CCN)c3cncc(-c4ccc5cnccc5c4)c3)cccc12
3.16 µM | Cc1cccc(NC(=O)Nc2ccc(-c3csc4c(C#CC(C)(C)N)cnc(N)c34)cc2)c1
2.51 µM | c1ccc(Nc2nc(-c3ccc4[nH]ncc4c3)cs2)cc1
> 10 µM | Nc1ccc(-c2cncc(OC[C@@H](N)Cc3c[nH]c4ccccc34)c2)cc1C(=O)c1ccccc1
0.501 µM | O=C(NCc1ccc(Cl)c(Cl)c1)Nc1ccc2[nH]ncc2c1

Reference: the kinase profiling compilation of Christmann-Franck et al. (2016)
